Where a name gives a salt, the structure may show the parent alone. Read-outs that look alike come from different tables or passages of the source.
Experiments:
[1] = tested on: bleomycin-induced lung fibrosis (lung collagen amount); test: Mouse bleomycin-induced lung fibrosis; assay type: in vivo, mice C57BL/6N; details: po, 672 h, read-out: lung collagen amount low compared with that of the control group
Method: The test was conducted using 8- to 10.5-week-old male mice C57BL/6N (Charles River Laboratories Japan, Inc.). Bleomycin (Nippon Kayaku Co., Ltd.) was dissolved in physiological saline in a concentration of 1.0 or 1.5 mg/mL, and 2 μL/g thereof was intranasally administered to each mouse to evoke lung fibrosis. A test compound was dissolved or suspended in a 10% aqueous solution of polyoxyethylene castor oil (trade name: Cremophor EL) or in water and orally administered in an amount of 10 mg/kg twice a day from the 14th to the 28th day from the evocation. In a control group, a 10% aqueous solution of polyoxyethylene castor oil or water was administered in the same manner. The lung was extracted from each mouse on the 28th day from the evocation, and collagen was quantitatively measured. The extracted lung was homogenized in a 0.5 mol/L aqueous solution of acetic acid containing a protease inhibitor cocktail (Complete, EDTA-free, Roche Diagnostics) in an amount of one tablet/50 mL, and water-soluble collagen was extracted in the presence of 10 mg/mL pepsin (Sigma) overnight. The amount of collagen was measured using a kit (Sircol Soluble Collagen assay kit, Biocolor).
The inhibition rate was determined by the following expression: Inhibition rate (%)=[1−(lung collagen amount in test compound administration group)/(lung collagen amount in control group)]×100

[2] = tested on: type I collagen α1 chain mRNA in WI-38 cells; test: Type I collagen α1 chain mRNA expression inhibition test; assay type: cell-based; details: Homo sapiens, read-out: Inhibition rate (%) at 10 μmol/L
Method: Human embryonic lung fibroblast cell line WI-38 cells were suspended in a Dulbecco's modified Eagle's medium containing 10% fetal calf serum, and 7.5×10^4 cells were inoculated on a 12-well plate and cultured for 3 days, or 1.5×10^5 cells were inoculated and cultured for 2 days. After the growth of the cells to a subconfluent state, the culture medium was changed to a Dulbecco's modified Eagle's medium containing 0.4% fetal calf serum and 50 μg/mL ascorbic acid, and the cells were further cultured for 24 hours. Then, a test compound was added thereto, and, one hour later, TGF-β1 was added at a final concentration of 1 ng/mL. Twenty-four hours after the addition, the total RNA was extracted from the cells using an RNA extraction kit (SV Total RNA Isolation System, Promega), and cDNA was synthesized using a reverse transcriptase (ReverTra Ace, TOYOBO). The expression level of the type I collagen al chain mRNA was analyzed with a real-time PCR instrument (ABI PRISM 7700 Sequence Detection System, Applied Biosystems) by a real-time PCR method using a premix reagent of real-time PCR (SYBR Premix Ex Taq or SYBR Premix Ex Taq II (Perfect Real Time), TaKaRa). A PCR reaction was conducted with diluted cDNA as a template, using primers specific for a type I collagen α1 chain gene or a GAPDH gene as an internal standard, and the reaction product was measured. The PCR reaction was conducted by incubation at 95° C. for 10 seconds and 45 cycles of denaturation at 95° C. for 5 seconds and annealing/extension at 60° C. for 30 seconds. The expression level of the type I collagen α1 chain mRNA was corrected with GAPDH and was expressed as a relative value when the expression level obtained in the absence of the test compound was defined as 100%.

[3] = tested on: SD-line male rats; test: Repeated administration toxicity test in rat (oral administration, two weeks); assay type: in vivo; details: 1000 mg/kg, 5 rats per group, 80a and 1b as sodium salts
Method: As test compounds, the compounds of Examples 80a, 122a, 139a, 1b, 16b, and 19b were used. Note that the compounds of Examples 80a and 1b were used in the forms of sodium salts.
Each test compound was suspended in a 0.5% methylcellulose solution or distilled water to prepare a 100 mg/mL suspension. The suspension of the test compound was orally administered (10 mL/kg, test compound: 1000 mg/kg) to SD-line male rats (6-week-old, 5 rats for each group).

[4] = target: T1, CYP2C9 (Homo sapiens, UniProt P11712); test: Hepatic drug-metabolizing enzyme inhibitory activity in humans (CYP2C9); assay type: in vitro ADME; details: pooled human liver microsome, tolbutamide 200 μmol/L, 37° C., 30 minutes; 80a as free base; read-out: IC50 (CYP2C9, tolbutamide metabolite)
T1 construct: Pooled human liver microsome was used, and tolbutamide was used as a substrate; from tissue; host or cells: pooled human liver microsomes
T1 sequence (P11712 whole entry): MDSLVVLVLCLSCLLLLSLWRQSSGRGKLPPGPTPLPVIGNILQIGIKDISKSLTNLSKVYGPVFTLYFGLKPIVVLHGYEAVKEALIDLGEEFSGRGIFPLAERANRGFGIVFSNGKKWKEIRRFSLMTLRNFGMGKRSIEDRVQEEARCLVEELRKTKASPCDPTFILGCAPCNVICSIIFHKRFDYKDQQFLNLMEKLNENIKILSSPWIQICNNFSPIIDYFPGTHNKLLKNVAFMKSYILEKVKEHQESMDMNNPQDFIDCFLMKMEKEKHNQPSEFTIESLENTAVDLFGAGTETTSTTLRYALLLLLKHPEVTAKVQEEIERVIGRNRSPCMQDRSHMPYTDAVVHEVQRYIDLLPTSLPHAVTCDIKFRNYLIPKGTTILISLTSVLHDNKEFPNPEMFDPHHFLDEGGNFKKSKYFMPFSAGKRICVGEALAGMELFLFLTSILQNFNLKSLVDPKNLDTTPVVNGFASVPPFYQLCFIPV
Method: As test compounds, the compounds of Examples 80a, 83a, 108a, 117a, 123a, 128a, 139a, 142a, and 143a were used. Note that the compound of Example 80a was used in the form of free base.
Pooled human liver microsome was used, and tolbutamide was used as a substrate. The reaction was performed in a phosphate buffer (100 mmol/L, pH 7.4), and the final concentrations in the reaction system were adjusted to 0.5 mg/mL of human liver microsome protein, 200 μmol/L of the substrate, 1.55 mmol/L of oxidized nicotinamide adenine dinucleotide phosphate (NADP+), 3.3 mmol/L of glucose-6-phosphate, 3.3 mmol/L of magnesium chloride, and 0.4 Units/mL of glucose-6-phosphate dehydrogenase (G6PDH). The final concentration of each compound in the reaction solution was adjusted to 0.08 to 50 μg/mL. These reaction solutions were each subjected to reaction at 37° C. for 30 minutes. The reaction was terminated with an equal amount of acetonitrile. After centrifugation, the concentration of a tolbutamide metabolite in the supernatant was quantitatively measured by LC-MS/MS. The inhibitory activity was determined as IC50. As a positive control, sulfaphenazole was used.

[5] = side effect, clinical, Non Patent Document 3; cited from earlier work
[6] = orally 10 mg/kg twice a day, 14th to 28th day, lung on 28th day, 23a, 1b, 7c as sodium salts, 122a, 143a as hydrochloric acid salts
[7] = 10 μmol/L test compound, WI-38 cells, TGF-β1 1 ng/mL, 24 hours, Table 4a
[8] = 10 μmol/L test compound, WI-38 cells, TGF-β1 1 ng/mL, 24 hours, Table 4b

| Compound | inhibition in vivo at 10 mg/kg [1, 6] [%] | inhibition at 10 µM [2, 7] [%] | survival on the 14th day from the administration [3] | IC50 [4] [µM] | further results |
| --- | --- | --- | --- | --- | --- |
| O=C(Nc1cc(-c2ccccc2)ccc1C(=O)O)c1cc(-c2cccnc2)ccc1O [Example 23a, 2-(2-hydroxy-5-(pyridin-3-yl)benzamido)-4-phenylbenzoic acid] | ≥ 30 | 91 |  |  |  |
| CCNc1ccccc1-c1ccc(C(=O)[O-])c(NC(=O)c2cncc(-c3ccccc3)c2)c1.[Na+] [16b, sodium 4-(2-(ethylamino)phenyl)-2-(5-phenylpyridine-3-carboxamido)benzoate] | ≥ 30 |  | all rats survived |  | inhibition at 10 µM [2, 8]: 84% |
| O=C(Nc1cc(-c2ccccc2)ccc1C(=O)O)c1cncc(-c2ccccc2)c1 [1b, 4-phenyl-2-(5-phenylpyridine-3-carboxamido)benzoic acid] | ≥ 30 |  | all rats survived |  | inhibition at 10 µM [2, 8]: 72% |
| CN1CCN(Cc2ccc(O)c(C(=O)Nc3cc(-c4ccccc4)ccc3C(=O)O)c2)CC1 [Example 122a, 2-(2-hydroxy-5-((4-methylpiperazin-1-yl)methyl)benzamido)-4-phenylbenzoic acid dimethanesulfonate] | ≥ 30 | 88 | all rats survived |  |  |
| CCN1CCN(CCOc2ccc(O)c(C(=O)Nc3cc(-c4ccccc4)ccc3C(=O)O)c2)CC1 [Example 143a, 2-(5-(2-(4-ethylpiperazin-1-yl)ethoxy)-2-hydroxybenzamido)-4-phenylbenzoic acid dimethanesulfonate] | ≥ 30 | 89 |  | > 102 |  |
| Cc1ccc(=O)n(-c2ccccc2)c1 [pirfenidone, Pirfenidone] |  |  |  |  | photosensitivity in subjects [5]: 87.9% |
| O=C(Nc1cc(-c2ccccc2)ccc1C(=O)O)c1cc(N2CCCCC2)ccc1O [Example 80a, 2-(2-hydroxy-5-(piperidin-1-yl)benzamido)-4-phenylbenzoic acid hydrochloride] |  |  | all rats survived | > 120 | inhibition in vivo at 10 mg/kg [1]: ≥ 30%; inhibition at 10 µM ([2]; WI-38, 24 h): 95% |
| CN1CCN(CCOc2ccc(O)c(C(=O)Nc3cc(-c4ccccc4)ccc3C(=O)O)c2)CC1 [Example 142a, 2-(2-hydroxy-5-(2-(4-methylpiperazin-1-yl)ethoxy)benzamido)-4-phenylbenzoic acid dimethanesulfonate] |  | 90 |  | > 105 |  |
| O=C(Nc1cc(-c2ccccc2)ccc1C(=O)O)c1cc(N2CCOCC2)ccc1O [Example 83a, 2-(2-Hydroxy-5-(morpholin-4-yl)benzamido)-4-phenylbenzoic acid hydrochloride] | ≥ 30 | 88 |  | > 110 |  |
| O=C(Nc1cc(-c2ccoc2)ccc1C(=O)O)c1cncc(-c2ccccc2)c1 [57b, Sodium 4-(furan-3-yl)-2-(5-phenylpyridine-3-carboxamido)benzoate] |  |  |  |  | inhibition in vivo at 10 mg/kg [1]: ≥ 30%; inhibition at 10 µM ([2]; WI-38, 24 h): 84% |
| CCN1CCN(Cc2ccc(O)c(C(=O)Nc3cc(-c4ccccc4)ccc3C(=O)O)c2)CC1 [Example 123a, 2-(5-((4-Ethylpiperazin-1-yl)methyl)-2-hydroxybenzamido)-4-phenylbenzoic acid dimethanesulfonate] |  |  |  | > 76.7 |  |
| O=C(Nc1cc(-c2ccco2)ccc1C(=O)[O-])c1cncc(-c2ccccc2)c1.[Na+] [19b, sodium 4-(furan-2-yl)-2-(5-phenylpyridine-3-carboxamido)benzoate] | ≥ 30 |  | all rats survived |  | inhibition at 10 µM [2, 8]: 90% |
| O=C(Nc1cc(-c2ccccc2)ccc1C(=O)O)c1cc(OCCN2CCOCC2)ccc1O [Example 139a, 2-(2-hydroxy-5-(2-(morpholin-4-yl)ethoxy)benzamido)-4-phenylbenzoic acid hydrochloride] |  |  | all rats survived | > 108 | inhibition at 10 µM ([2]; WI-38, 24 h): 85% |
| CN(C)C1CCN(Cc2ccc(O)c(C(=O)Nc3cc(-c4ccccc4)ccc3C(=O)O)c2)CC1 [Example 128a, 2-(5-((4-(Dimethylamino)piperidin-1-yl)methyl)-2-hydroxybenzamido)-4-phenylbenzoic acid dimethanesulfonate] |  |  |  | > 106 |  |
| CN1CCN(CCc2ccc(O)c(C(=O)Nc3cc(-c4ccccc4)ccc3C(=O)O)c2)CC1 [Example 117a, 2-(2-hydroxy-5-(2-(4-methylpiperazin-1-yl)ethyl)benzamido)-4-phenylbenzoic acid dimethanesulfonate] |  | 90 |  | > 109 |  |
| CN1CCC(Oc2ccc(O)c(C(=O)Nc3cc(-c4ccccc4)ccc3C(=O)O)c2)CC1 [Example 108a, 2-(2-hydroxy-5-((1-methylpiperidin-4-yl)oxy)benzamido)-4-phenylbenzoic acid hydrochloride] |  | 94 |  | > 112 | inhibition in vivo at 10 mg/kg [1]: ≥ 30% |
| O=C(Nc1cc(-c2ccccc2)ccc1C(=O)O)c1ccc(N2CCCCC2)cc1O [Example 100a, 2-(2-hydroxy-4-(piperidin-1-yl)benzamido)-4-phenylbenzoic acid] |  | 99 |  |  |  |
| CN1CCN(CCCOc2ccc(O)c(C(=O)Nc3cc(-c4ccccc4)ccc3C(=O)O)c2)CC1 [Example 141a, 2-(2-hydroxy-5-(3-(4-methylpiperazin-1-yl)propoxy)benzamido)-4-phenylbenzoic acid dimethanesulfonate] |  | 92 |  |  |  |
| O=C(Nc1cc(-c2ccc[nH]2)ccc1C(=O)O)c1cncc(-c2ccccc2)c1 [58b, 2-(5-phenylpyridine-3-carboxamido)-4-(1H-pyrrol-2-yl)benzoic acid] |  |  |  |  | inhibition at 10 µM [2, 8]: 78% |
